Patent publication US9808466B2, “Macrocyclic compounds as protein kinase inhibitors” (Fundación Centro Nacional de Investigaciones Oncologicas …, priority 2011, dated 2017)
pIC50: −log10 of the molar value. Read-outs that look alike come from different tables or passages of the source.

Assays:
PI3K (p110α/p85α) = target: T1, PI3K (p110α/p85α) (Homo sapiens, UniProt P42336); assay: PI3K activity assay (ADP Hunter Plus); assay type: biochemical
T1 construct: purchased Carna Biosciences 07CBS-0402A
Description: The kinase activity was measured by using the commercial ADP Hunter™ Plus assay available from DiscoveRx (#33-016), which is a homogeneous assay to measure the accumulation of ADP, a universal product of kinase activity. […] Reaction was carried out for 1 hour at 25° C. Reagent A and B were sequentially added to the wells and plates were incubated for 30 min at 37° C. Fluorescence counts were read in a Victor instrument (Perkin Elmer) with the recommended settings (544 and 580 nm as excitation and emission wavelengths, respectively). Values were normalized against the control activity included for each enzyme (i.e., 100% PI3 kinase activity, without compound). These values were plotted against the inhibitor concentration and were fit to a sigmoid dose-response curve by using the Graphad software.

mTOR = target: T2, mTOR (Homo sapiens, UniProt P42345); assay: mTOR assay (LanthaScreen kinase activity assay); assay type: biochemical
T2 construct: purchased Invitrogen PV4754
Description: The enzymatic mTOR activity was measured using a LanthaScreen™ kinase activity assay (Invitrogen). The enzyme was purchased from Invitrogen (PV4754), as well as the GFP-labeled substrate (4EBP1-GFP; PV4759) and the Tb-anti-p4EBP1(pThr46) antibody (PV4757). The assay was performed in 50 mM HEPES buffer, pH 7.5, containing 1.5 mM MnCl2, 10 mM MgCl2, 1 mM EGTA, 2.5 mM DTT and 0.01% Tween-20. The concentration of the assay components were the following: 0.24 nM mTOR kinase, 400 nM 4EBP1-GFP, […] and serial dilutions of the compound (inhibitor) to be evaluated. After 1 h incubation at room temperature, 20 mM EDTA was used to stop the reaction and terbium-labeled antibody (4 nM) added to detect phosphorylated product. The antibody associates with the phosphorylated product resulting in an increased TR-FRET value. The TR-FRET value (a dimensionless number) was calculated as the ratio of the acceptor signal (GFP, emission at 520 nm) to the donor signal (terbium, emission at 495 nm). Values were plotted against the inhibitor concentration and fitted to a sigmoid dose-response curve using GraphPad software.

PIM-1 = target: T3, PIM-1 (Homo sapiens, UniProt P11309); assay: PIM-1 biochemical assay (ADP Hunter)
T3 construct: histidine tag (C); made in house
Text: The biochemical assay to measure PIM-1 activity relies on the ADP Hunter assay kit (DiscoveRx Corp., Cat. #90-0077), that determines the amount of ADP as direct product of the kinase enzyme activity.
The enzyme has been expressed and purified in-house as a recombinant human protein with a C-terminal histidine tag. The protein is active and stable.
Assay conditions were as indicated by the kit manufacturers with the following adaptations for the kinase activity step: • Kinase assay buffer and assay volume stay as recommended (15 mM HEPES, pH 7.4, 20 mM NaCl, 1 mM EGTA, 0.02% Tween 20, 10 mM MgCl2 and 0.1 mg/ml bovine γ-globulins/75 μl assay volume) • Incubation time and temperature: 60 min at 30° C. • PIM-1 concentration: 50 pg/μl • ATP concentration: 100 μM • PIM-1 substrate peptide: PIMtide ([…]) (SEQIDNO. 1) • Peptide concentration: 60 μM • Positive control for kinase activity inhibition: 1-10 μM Staurosporine • DMSO concentration have to stay below 2% during the kinase reaction
Assays were performed in either 96 or 384-well plates. The final outcome of the coupled reactions provided by the kit is the release of the fluorescent product Resorufin and has been measured with a multilabel HTS counter VICTOR V (PerkinElmer) using an excitation filter at 544 nm and an emission filter at 580 nm.

[1] = read-out: PI3K alpha IC50 (in parentheses)
[2] = read-out: PI3K alpha activity (semi-quantitative IC50)
[3] = read-out: mTOR IC50 (in parentheses)
[4] = read-out: mTOR activity (semi-quantitative IC50)
[5] = read-out: PIM-1 IC50 (in parentheses)
[6] = read-out: PIM-1 activity (semi-quantitative IC50)

T2 sequence (P42345 1360-2549 limits assumed): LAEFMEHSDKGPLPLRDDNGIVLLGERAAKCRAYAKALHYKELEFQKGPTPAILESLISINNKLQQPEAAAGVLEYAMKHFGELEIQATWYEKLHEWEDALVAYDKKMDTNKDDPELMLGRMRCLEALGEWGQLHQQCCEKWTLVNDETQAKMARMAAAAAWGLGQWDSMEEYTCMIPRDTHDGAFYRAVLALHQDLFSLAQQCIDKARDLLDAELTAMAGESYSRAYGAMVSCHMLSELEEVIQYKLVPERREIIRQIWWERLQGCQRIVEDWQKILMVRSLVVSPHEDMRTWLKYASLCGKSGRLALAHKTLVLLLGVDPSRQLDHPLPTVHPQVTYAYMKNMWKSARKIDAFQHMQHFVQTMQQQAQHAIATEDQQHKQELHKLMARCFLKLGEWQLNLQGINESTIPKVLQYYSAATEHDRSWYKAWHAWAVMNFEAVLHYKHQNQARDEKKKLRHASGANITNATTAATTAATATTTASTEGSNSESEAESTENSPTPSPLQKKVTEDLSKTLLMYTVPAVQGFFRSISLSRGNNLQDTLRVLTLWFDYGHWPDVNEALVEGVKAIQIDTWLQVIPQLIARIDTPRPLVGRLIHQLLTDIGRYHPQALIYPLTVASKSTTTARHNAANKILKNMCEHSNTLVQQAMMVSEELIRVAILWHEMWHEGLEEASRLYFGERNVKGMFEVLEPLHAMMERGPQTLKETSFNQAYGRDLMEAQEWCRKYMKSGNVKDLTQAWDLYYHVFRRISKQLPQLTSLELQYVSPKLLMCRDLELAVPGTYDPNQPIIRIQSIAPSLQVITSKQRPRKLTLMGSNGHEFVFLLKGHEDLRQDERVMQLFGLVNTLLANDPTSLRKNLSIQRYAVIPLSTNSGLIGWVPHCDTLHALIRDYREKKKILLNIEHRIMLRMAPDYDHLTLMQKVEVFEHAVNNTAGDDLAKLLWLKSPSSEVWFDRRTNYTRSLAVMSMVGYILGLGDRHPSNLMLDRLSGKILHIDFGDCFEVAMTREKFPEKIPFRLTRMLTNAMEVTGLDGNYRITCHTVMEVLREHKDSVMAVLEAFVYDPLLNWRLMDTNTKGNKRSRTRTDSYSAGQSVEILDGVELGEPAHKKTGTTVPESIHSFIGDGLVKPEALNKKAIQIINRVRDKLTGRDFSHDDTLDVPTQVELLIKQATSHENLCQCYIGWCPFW
T1 sequence (P42336 whole entry): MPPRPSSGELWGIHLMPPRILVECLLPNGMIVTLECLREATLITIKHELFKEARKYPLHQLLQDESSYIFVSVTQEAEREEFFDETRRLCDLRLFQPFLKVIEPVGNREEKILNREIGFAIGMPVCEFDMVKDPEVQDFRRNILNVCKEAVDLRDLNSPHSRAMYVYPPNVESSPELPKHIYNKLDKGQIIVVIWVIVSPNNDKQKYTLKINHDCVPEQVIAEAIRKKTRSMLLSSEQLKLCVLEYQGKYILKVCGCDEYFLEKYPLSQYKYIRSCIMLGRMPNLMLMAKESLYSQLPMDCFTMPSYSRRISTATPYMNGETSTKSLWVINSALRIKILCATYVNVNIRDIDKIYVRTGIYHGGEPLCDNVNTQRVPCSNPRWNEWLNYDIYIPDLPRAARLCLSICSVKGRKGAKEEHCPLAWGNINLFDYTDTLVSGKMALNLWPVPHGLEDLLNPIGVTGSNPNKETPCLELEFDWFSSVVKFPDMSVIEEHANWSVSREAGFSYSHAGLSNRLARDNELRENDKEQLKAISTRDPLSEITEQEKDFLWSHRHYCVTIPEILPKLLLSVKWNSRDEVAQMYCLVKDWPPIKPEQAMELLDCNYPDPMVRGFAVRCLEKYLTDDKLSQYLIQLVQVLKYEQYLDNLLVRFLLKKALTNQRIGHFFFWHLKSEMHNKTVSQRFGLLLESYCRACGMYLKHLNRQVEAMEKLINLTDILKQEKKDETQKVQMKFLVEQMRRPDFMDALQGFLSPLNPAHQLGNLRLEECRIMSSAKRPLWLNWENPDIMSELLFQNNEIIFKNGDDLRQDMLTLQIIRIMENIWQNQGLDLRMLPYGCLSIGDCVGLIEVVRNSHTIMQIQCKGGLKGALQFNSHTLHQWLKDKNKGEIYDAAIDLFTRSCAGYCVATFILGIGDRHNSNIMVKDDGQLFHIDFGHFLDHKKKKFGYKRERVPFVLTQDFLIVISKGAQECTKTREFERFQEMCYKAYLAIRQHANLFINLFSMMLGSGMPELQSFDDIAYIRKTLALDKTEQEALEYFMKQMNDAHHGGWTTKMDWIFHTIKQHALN
T1 sequence (P27986 whole entry partner): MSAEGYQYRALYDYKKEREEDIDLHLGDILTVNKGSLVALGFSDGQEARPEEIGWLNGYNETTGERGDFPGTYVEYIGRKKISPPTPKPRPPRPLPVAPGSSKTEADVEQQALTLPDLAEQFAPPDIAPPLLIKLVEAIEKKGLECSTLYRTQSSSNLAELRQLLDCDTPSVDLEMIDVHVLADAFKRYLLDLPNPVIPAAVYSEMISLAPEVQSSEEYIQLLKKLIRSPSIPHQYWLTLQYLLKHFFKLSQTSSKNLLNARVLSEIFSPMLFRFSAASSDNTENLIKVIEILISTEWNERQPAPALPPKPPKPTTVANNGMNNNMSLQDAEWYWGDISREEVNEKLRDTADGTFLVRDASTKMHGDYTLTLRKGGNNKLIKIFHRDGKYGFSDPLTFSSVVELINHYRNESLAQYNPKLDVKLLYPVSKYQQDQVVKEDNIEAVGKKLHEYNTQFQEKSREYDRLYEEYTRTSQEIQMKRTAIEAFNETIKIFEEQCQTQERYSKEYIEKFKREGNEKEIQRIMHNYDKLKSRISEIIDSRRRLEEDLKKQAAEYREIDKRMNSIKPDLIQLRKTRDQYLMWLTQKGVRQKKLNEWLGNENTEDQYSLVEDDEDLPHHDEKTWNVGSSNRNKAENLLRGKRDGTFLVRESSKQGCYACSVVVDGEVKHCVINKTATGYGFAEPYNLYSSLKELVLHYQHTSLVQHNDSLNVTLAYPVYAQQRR
T3 sequence (P11309 whole entry): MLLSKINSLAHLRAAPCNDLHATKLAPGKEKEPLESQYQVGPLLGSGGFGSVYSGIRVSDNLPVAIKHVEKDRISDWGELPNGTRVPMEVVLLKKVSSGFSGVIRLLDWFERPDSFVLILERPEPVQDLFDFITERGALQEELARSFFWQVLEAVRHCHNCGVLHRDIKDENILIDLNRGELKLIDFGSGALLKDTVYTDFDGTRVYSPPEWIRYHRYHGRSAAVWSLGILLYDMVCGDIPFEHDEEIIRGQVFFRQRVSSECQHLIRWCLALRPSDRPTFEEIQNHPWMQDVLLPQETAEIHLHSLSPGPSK

Compound	pIC50 (PI3K (p110α/p85α); [1])	pIC50 (PI3K (p110α/p85α); [2])	pIC50 (mTOR; [3])	pIC50 (mTOR; [4])	pIC50 (PIM-1; [5])	pIC50 (PIM-1; [6])
COc1ncc2cc1NS(=O)(=O)c1ccc(F)c(c1)C(=O)NCC1=CC=C(S1)c1ncnc3c1SC2=C3C [compound 90]	8.74	> 7.00	7.25	> 7.00	7.57	> 7.00
COc1ncc2cc1NS(=O)(=O)c1cccc(c1)C(=O)NC[C@@H]1CN(CCO1)c1ncnc3c1SC2=C3C [compound 91]	8.00	> 7.00	–	6.00 to 7.00	7.33	> 7.00
COc1ncc2cc1NS(=O)(=O)c1cccc(c1)C(=O)NCc1cc(F)cc(c1)-c1ncnc3c1SC2=C3C [compound 92]	7.82	> 7.00	–	< 6.00	–	< 6.00
COCCOc1ccc2cc1C(=O)NCC1=CC=C(S1)c1ncnc3c1SC(=C3)c1cnc(OC)c(c1)NS2(=O)=O [compound 93]	–	6.00 to 7.00	7.49	> 7.00	–	< 6.00
COc1ncc2cc1NS(=O)(=O)c1cccc(c1)C(=O)NC[C@@H]1CCN(C1)c1ncnc3c1SC2=C3C [compound 94]	7.59	> 7.00	–	< 6.00	7.19	> 7.00
COCCOc1ccc2cc1C(=O)NCC1=CC=C(S1)c1ncnc3c1SC(=C3C)c1cnc(OC)c(c1)NS2(=O)=O [compound 95]	7.70	> 7.00	–	< 6.00	–	6.00 to 7.00
COc1ccc2cc1C(=O)NCC1=CC=C(S1)c1ncnc3c1SC(=C3)c1cnc(OC)c(c1)NS2(=O)=O [compound 97]	–	6.00 to 7.00	–	< 6.00	7.21	> 7.00
COc1ncc2cc1NS(=O)(=O)c1ccc(Cl)c(c1)C(=O)NCC1=CC=C(S1)c1ncnc3c1SC2=C3 [compound 98]	7.43	> 7.00	–	< 6.00	7.89	> 7.00
COc1ncc2cc1NS(=O)(=O)c1cccc(c1)C(=O)NC[C@H]1CCN(C1)c1ncnc3c1SC2=C3C [compound 99]	7.37	> 7.00	–	< 6.00	7.28	> 7.00
COc1ccc2cc1C(=O)NCC1=CC=C(S1)c1ncnc3c1SC(=C3C)c1cnc(OC)c(c1)NS2(=O)=O [compound 100]	8.48	> 7.00	–	< 6.00	7.51	> 7.00
COc1ncc2cc1NS(=O)(=O)c1cccc(c1)C(=O)NCC1=CC=C(S1)c1ccnc3c1SC2=C3C [compound 101]	7.59	> 7.00	–	< 6.00	7.68	> 7.00
COc1ncc2cc1NS(=O)(=O)c1ccc(Cl)c(c1)C(=O)NCC1=CC=C(S1)c1ccnc3c1SC2=C3C [compound 102]	10.00	> 7.00	7.55	> 7.00	8.02	> 7.00
